Results taken from patent publication US20100240683A1, “COMBINATION THERAPY, COMPOSITION AND METHODS FOR THE TREATMENT OF CARDIOVASCULAR DISORDERS” (Syndromex Ltd., priority 2007, published 2010).
pIC50: −log10 of the molar value. Where two headings read alike, the source gives them in different places. Blank lines part the entries; values can stand above or below the compound they belong to.

Key:
[1] = target: T1, CYP2B6 (Homo sapiens, UniProt P20813); test: Fluorimetric CYP inhibition assay, CYP2B6-EFC
T1 sequence (P20813 1-491): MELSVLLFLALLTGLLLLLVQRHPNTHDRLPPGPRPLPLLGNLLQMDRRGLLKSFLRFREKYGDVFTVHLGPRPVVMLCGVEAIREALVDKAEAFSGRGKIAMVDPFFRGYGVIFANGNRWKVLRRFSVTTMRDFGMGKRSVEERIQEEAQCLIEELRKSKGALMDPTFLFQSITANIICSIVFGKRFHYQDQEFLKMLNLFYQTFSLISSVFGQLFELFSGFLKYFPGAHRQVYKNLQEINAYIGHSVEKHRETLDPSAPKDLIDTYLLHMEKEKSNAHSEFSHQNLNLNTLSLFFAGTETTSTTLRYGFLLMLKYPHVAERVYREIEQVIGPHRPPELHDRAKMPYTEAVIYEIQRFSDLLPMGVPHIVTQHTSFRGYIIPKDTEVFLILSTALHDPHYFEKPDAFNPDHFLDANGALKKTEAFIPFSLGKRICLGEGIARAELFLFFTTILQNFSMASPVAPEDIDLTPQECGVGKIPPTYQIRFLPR

[2] = target: T2, CYP1A2 (Homo sapiens, UniProt P05177); test: in vitro
T2 sequence (P05177 1-516): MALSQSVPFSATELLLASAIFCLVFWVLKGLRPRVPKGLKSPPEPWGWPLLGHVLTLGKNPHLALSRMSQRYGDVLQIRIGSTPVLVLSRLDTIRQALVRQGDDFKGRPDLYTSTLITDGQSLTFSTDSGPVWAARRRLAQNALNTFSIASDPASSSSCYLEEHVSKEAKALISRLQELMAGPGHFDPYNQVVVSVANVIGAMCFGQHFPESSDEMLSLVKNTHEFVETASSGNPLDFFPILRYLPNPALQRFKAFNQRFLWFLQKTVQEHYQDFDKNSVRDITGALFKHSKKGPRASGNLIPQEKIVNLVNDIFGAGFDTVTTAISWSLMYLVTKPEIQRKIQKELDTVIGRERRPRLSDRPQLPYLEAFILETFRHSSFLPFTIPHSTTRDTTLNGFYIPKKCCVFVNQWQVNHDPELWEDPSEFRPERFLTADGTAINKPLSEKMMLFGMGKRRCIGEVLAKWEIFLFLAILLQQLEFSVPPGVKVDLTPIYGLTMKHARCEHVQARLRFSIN

[3] = target: T3, CYP3A4 (Homo sapiens, UniProt P08684)
[4] = target: CYP2D6 (Homo sapiens, UniProt P10635); test: Fluorimetric CYP inhibition assay, CYP2D6-AMMC
[5] = target: T4, CYP2C9 (Homo sapiens, UniProt P11712); test: Fluorimetric CYP inhibition assay, CYP2C9-MFC
[6] = target: T3, CYP3A4; test: Fluorimetric CYP inhibition assay, CYP3A4 (substrates BFC, BQ, DBF)
[7] = target: T5, CYP2C8 (Homo sapiens, UniProt P10632); test: in vitro
T5 sequence (P10632 1-490): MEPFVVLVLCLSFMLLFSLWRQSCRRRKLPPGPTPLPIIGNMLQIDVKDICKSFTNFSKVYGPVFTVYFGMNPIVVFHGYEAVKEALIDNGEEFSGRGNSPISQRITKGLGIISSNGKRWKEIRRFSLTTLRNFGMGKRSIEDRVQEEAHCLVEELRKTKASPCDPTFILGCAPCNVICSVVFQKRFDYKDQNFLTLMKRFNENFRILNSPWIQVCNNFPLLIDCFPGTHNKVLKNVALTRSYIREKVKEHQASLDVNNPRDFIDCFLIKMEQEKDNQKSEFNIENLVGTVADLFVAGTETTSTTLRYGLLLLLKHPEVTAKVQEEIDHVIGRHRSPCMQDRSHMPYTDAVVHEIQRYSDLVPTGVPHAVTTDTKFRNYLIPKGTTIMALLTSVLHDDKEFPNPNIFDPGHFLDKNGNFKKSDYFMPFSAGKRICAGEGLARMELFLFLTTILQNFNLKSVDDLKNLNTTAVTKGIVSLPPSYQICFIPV

[8] = target: T5, CYP2C8; test: biochemical
[9] = target: T3, CYP3A4; test: in vitro
[10] = target: T4, CYP2C9; test: in vitro

T4 sequence (P11712 whole entry): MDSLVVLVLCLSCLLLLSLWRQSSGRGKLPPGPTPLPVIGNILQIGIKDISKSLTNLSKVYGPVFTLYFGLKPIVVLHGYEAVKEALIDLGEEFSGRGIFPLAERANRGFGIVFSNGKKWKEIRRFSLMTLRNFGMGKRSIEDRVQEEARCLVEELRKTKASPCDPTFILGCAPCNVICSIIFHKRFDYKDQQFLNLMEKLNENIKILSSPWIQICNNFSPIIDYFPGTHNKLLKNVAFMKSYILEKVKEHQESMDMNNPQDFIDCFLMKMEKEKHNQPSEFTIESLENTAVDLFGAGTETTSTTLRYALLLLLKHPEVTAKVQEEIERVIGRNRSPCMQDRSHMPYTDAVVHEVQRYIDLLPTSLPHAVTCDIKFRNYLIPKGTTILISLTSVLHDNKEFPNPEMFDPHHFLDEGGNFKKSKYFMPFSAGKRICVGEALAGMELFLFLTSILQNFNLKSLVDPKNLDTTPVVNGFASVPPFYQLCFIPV
T3 sequence (P08684 whole entry): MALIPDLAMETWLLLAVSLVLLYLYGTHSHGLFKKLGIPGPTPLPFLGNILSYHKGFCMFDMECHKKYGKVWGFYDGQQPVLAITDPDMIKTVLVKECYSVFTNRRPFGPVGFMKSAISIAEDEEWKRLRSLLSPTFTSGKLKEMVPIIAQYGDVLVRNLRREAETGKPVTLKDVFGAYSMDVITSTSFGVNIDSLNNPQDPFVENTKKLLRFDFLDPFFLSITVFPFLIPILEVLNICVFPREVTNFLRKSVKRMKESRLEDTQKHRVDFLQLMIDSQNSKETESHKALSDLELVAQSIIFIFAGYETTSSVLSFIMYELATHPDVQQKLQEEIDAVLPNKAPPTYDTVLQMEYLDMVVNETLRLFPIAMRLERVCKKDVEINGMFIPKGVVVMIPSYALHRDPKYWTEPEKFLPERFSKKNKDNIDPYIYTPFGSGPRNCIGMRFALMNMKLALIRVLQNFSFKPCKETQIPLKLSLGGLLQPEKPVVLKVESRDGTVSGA
Sequence of CYP2D6 (P10635 whole entry): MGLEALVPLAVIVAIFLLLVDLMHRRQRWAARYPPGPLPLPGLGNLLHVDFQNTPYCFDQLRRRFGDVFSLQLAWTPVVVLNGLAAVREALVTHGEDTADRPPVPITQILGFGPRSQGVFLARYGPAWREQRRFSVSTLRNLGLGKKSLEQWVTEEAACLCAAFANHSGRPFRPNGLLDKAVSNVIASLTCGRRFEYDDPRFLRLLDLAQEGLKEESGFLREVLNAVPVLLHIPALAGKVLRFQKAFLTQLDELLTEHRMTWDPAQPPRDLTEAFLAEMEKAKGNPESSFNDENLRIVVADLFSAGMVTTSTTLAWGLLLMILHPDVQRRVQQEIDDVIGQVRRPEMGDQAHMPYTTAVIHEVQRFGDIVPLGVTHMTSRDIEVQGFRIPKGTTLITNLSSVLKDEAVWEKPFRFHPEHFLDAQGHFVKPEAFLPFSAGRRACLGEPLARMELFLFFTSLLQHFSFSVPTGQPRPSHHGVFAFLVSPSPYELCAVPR

- pIC50 [1]: < 4.00
- inhibition at 0.05 μM ([2]; % Inhibition (set 1)): 0%
- inhibition at 0.41 μM ([2]; % Inhibition (set 1)): 6%
- inhibition at 1.23 μM ([2]; % Inhibition (set 1)): 0%
- inhibition at 3.7 μM ([2]; % Inhibition (set 1)): 9%
- inhibition at 11.11 μM ([2]; % Inhibition (set 1)): 5%
- inhibition at 33.33 μM ([2]; % Inhibition (set 1)): 7%
- inhibition at 100 μM ([2]; % Inhibition (set 1)): 8%
- inhibition at 0.05 μM ([2]; % Inhibition (set 2)): 0%
- inhibition at 0.41 μM ([2]; % Inhibition (set 2)): 3%
- inhibition at 1.23 μM ([2]; % Inhibition (set 2)): 1%
- inhibition at 3.7 μM ([2]; % Inhibition (set 2)): 5%
- inhibition at 11.11 μM ([2]; % Inhibition (set 2)): 6%
- inhibition at 33.33 μM ([2]; % Inhibition (set 2)): 4%
- inhibition at 100 μM ([2]; % Inhibition (set 2)): 9%
- % Inhibition (set 1) ([3]; 0.05 μM): 5%
- % Inhibition (set 2) ([3]; 0.05 μM): 1%
- % Inhibition (set 1) ([3]; 3.7 μM): 1%
- % Inhibition (set 1) ([3]; 33.33 μM): 4%
- pIC50 [4]: < 4.00
- pIC50 [5]: < 4.00
- pIC50 [6]: < 4.00
- inhibition at 0.05 μM ([7]; % Inhibition (set 1)): 0%
- inhibition at 0.41 μM ([7]; % Inhibition (set 1)): 1%
- inhibition at 1.23 μM ([7]; % Inhibition (set 1)): 0%
- inhibition at 3.7 μM ([7]; % Inhibition (set 1)): 4%
- inhibition at 11.11 μM ([7]; % Inhibition (set 1)): 13%
- inhibition at 33.33 μM ([7]; % Inhibition (set 1)): 23%
- inhibition at 100 μM ([7]; % Inhibition (set 1)): 43%
- inhibition at 0.05 μM ([7]; % Inhibition (set 2)): 0%
- inhibition at 0.41 μM ([7]; % Inhibition (set 2)): 0%
- inhibition at 1.23 μM ([7]; % Inhibition (set 2)): 0%
- inhibition at 3.7 μM ([7]; % Inhibition (set 2)): 0%
- inhibition at 11.11 μM ([7]; % Inhibition (set 2)): 0%
- inhibition at 33.33 μM ([7]; % Inhibition (set 2)): 15%
- inhibition at 100 μM ([7]; % Inhibition (set 2)): 38%
- pIC50 [8]: < 4.00
- inhibition at 0.41 μM ([9]; % Inhibition (set 1)): 3%
- inhibition at 100 μM ([9]; % Inhibition (set 1)): 23%
- inhibition at 1.23 μM ([9]; % Inhibition (set 2)): 0%
- inhibition at 3.7 μM ([9]; % Inhibition (set 2)): 0%
- inhibition at 100 μM ([9]; % Inhibition (set 2)): 19%
- inhibition at 0.05 μM ([10]; % Inhibition (set 1)): 4%
- inhibition at 0.41 μM ([10]; % Inhibition (set 1)): 5%
- inhibition at 1.23 μM ([10]; % Inhibition (set 1)): 2%
- inhibition at 3.7 μM ([10]; % Inhibition (set 1)): 6%
- inhibition at 11.11 μM ([10]; % Inhibition (set 1)): 15%
- inhibition at 33.33 μM ([10]; % Inhibition (set 1)): 15%
- inhibition at 100 μM ([10]; % Inhibition (set 1)): 29%
- inhibition at 0.05 μM ([10]; % Inhibition (set 2)): 0%
- inhibition at 0.41 μM ([10]; % Inhibition (set 2)): 5%
- inhibition at 1.23 μM ([10]; % Inhibition (set 2)): 9%
- inhibition at 3.7 μM ([10]; % Inhibition (set 2)): 0%
- inhibition at 11.11 μM ([10]; % Inhibition (set 2)): 7%
- inhibition at 33.33 μM ([10]; % Inhibition (set 2)): 14%
- inhibition at 100 μM ([10]; % Inhibition (set 2)): 31%
SMILES: CC(C)(CCCCCCCCCCCCC(C)(C)C(=O)O)C(=O)O [M16αα, 2,2,15,15-tetramethylhexadecane-1,16-dioic acid]

- pIC50 [1]: < 4.00
- inhibition at 0.05 μM ([2]; % Inhibition (set 1)): 0%
- inhibition at 0.41 μM ([2]; % Inhibition (set 1)): 0%
- inhibition at 1.23 μM ([2]; % Inhibition (set 1)): 0%
- inhibition at 3.7 μM ([2]; % Inhibition (set 1)): 0%
- inhibition at 11.11 μM ([2]; % Inhibition (set 1)): 4%
- inhibition at 33.33 μM ([2]; % Inhibition (set 1)): 3%
- inhibition at 100 μM ([2]; % Inhibition (set 1)): 1%
- inhibition at 0.05 μM ([2]; % Inhibition (set 2)): 0%
- inhibition at 0.41 μM ([2]; % Inhibition (set 2)): 0%
- inhibition at 1.23 μM ([2]; % Inhibition (set 2)): 0%
- inhibition at 3.7 μM ([2]; % Inhibition (set 2)): 0%
- inhibition at 11.11 μM ([2]; % Inhibition (set 2)): 0%
- inhibition at 33.33 μM ([2]; % Inhibition (set 2)): 1%
- inhibition at 100 μM ([2]; % Inhibition (set 2)): 4%
- % Inhibition (set 2) ([3]; 1.23 μM): 12%
- % Inhibition (set 2) ([3]; 3.7 μM): 2%
- pIC50 [4]: < 4.00
- pIC50 [5]: < 4.00
- pIC50 [6]: < 4.00
- inhibition at 0.05 μM ([7]; % Inhibition (set 1)): 8%
- inhibition at 0.41 μM ([7]; % Inhibition (set 1)): 7%
- inhibition at 1.23 μM ([7]; % Inhibition (set 1)): 4%
- inhibition at 3.7 μM ([7]; % Inhibition (set 1)): 7%
- inhibition at 11.11 μM ([7]; % Inhibition (set 1)): 15%
- inhibition at 33.33 μM ([7]; % Inhibition (set 1)): 22%
- inhibition at 100 μM ([7]; % Inhibition (set 1)): 46%
- inhibition at 0.05 μM ([7]; % Inhibition (set 2)): 0%
- inhibition at 0.41 μM ([7]; % Inhibition (set 2)): 0%
- inhibition at 1.23 μM ([7]; % Inhibition (set 2)): 0%
- inhibition at 3.7 μM ([7]; % Inhibition (set 2)): 0%
- inhibition at 11.11 μM ([7]; % Inhibition (set 2)): 9%
- inhibition at 33.33 μM ([7]; % Inhibition (set 2)): 23%
- inhibition at 100 μM ([7]; % Inhibition (set 2)): 46%
- pIC50 [8]: < 4.00
- inhibition at 0.05 μM ([9]; % Inhibition (set 1)): 0%
- inhibition at 0.41 μM ([9]; % Inhibition (set 1)): 0%
- inhibition at 0.41 μM ([9]; % Inhibition (set 2)): 0%
- inhibition at 100 μM ([9]; % Inhibition (set 2)): 15%
- inhibition at 0.05 μM ([10]; % Inhibition (set 1)): 0%
- inhibition at 0.41 μM ([10]; % Inhibition (set 1)): 0%
- inhibition at 1.23 μM ([10]; % Inhibition (set 1)): 3%
- inhibition at 3.7 μM ([10]; % Inhibition (set 1)): 13%
- inhibition at 11.11 μM ([10]; % Inhibition (set 1)): 19%
- inhibition at 33.33 μM ([10]; % Inhibition (set 1)): 34%
- inhibition at 100 μM ([10]; % Inhibition (set 1)): 50%
- inhibition at 0.05 μM ([10]; % Inhibition (set 2)): 0%
- inhibition at 0.41 μM ([10]; % Inhibition (set 2)): 3%
- inhibition at 1.23 μM ([10]; % Inhibition (set 2)): 10%
- inhibition at 3.7 μM ([10]; % Inhibition (set 2)): 8%
- inhibition at 11.11 μM ([10]; % Inhibition (set 2)): 18%
- inhibition at 33.33 μM ([10]; % Inhibition (set 2)): 26%
- inhibition at 100 μM ([10]; % Inhibition (set 2)): 44%
SMILES: CC(C)(CCCCCCCCCCC(C)(C)CC(=O)O)CC(=O)O [M16ββ, 3,3,14,14-tetramethylhexadecane-1,16-dioic acid]
